According to patent US20230123334A1, “AMINO LIPID COMPOUND, PREPARATION METHOD THEREFOR, AND APPLICATION THEREOF” (SHENZHEN SHENXIN BIOTECHNOLOGY CO., LTD., priority 2020, published 2023):

Tested on: HEK293 cells
Assay: Preliminary screening as DNA vectors, GFP transfection of HEK293 cells
Type: cell-based
Conditions: amino lipid/DOPE liposome with 75 ng plasmid DNA (psin-EGFP-IRES-Puro); number of GFP-expressing cells divided by total nuclei (Hoechst)
In short: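 HEK293 cells in DMEM/10% FBS transfected with 75 ng EGFP plasmid per well complexed with amino lipid/DOPE liposomes in pH 5.6 sodium acetate. Hoechst nuclear stain added 20-24 h post-transfection, then cells cultured another 20-24 h. Confocal imaging gives GFP-positive cells as % of total nuclei.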

| Structure (SMILES) | Absolute DNA transfection efficiency in HEK293 cells [%] |
| --- | --- |
| CCCCCCCCCCCCN(CCCCCCCCCCCC)c1nc(NCCN(CC)CC)nc(SCCCCCCCCCCC)n1 [S11^2N12 D7] | 0.1 |
| CCCCCCCCCCCCCCCCSc1nc(NCCCCCCCCCCCCC)nc(NCCCN2CCN(C)CC2)n1 [S16N13 D9] | 5.7 |
| CCCCCCCCCCCCSc1nc(NCCCCCCC)nc(NCCN(C)C)n1 [S12N7 D1] | 6.9 |
| CCCCCCCCCCCSc1nc(NCCCCCCCC)nc(NCCN(CC)CC)n1 [S11N8 D7] | 10.1 |
| CCCCCCCCCCCCCCCCSc1nc(NCCCCCCCCCCCC)nc(NCCN2CCCC2)n1 [S16N12 D3] | 3.9 |
| CCCCCCCCCCCCCCCCSc1nc(NCCCN(C)C)nc(N(CCCCCCCCCCCC)CCCCCCCCCCCC)n1 [S16^2N12 D6] | 0.0 |
| CCCCCCCCCCSc1nc(NCCCCCC)nc(NCCN2CCN(C)CC2)n1 [S10N6 D5] | 7.0 |
| CCCCCCCNc1nc(NCCN2CCN(C)CC2)nc(SCCCCCC)n1 [S6N7 D5] | 3.7 |
| CCCCCCCCCCCCNc1nc(NCCCN(C)C)nc(SCCCCCCCCCC)n1 [S10N12 D6] | 19.8 |
| CCCCCCCCCSc1nc(NCCCCCC)nc(NCCCN2CCOCC2)n1 [S9N6 D8] | 7.8 |
| CCCCCCCCCCCCCCSc1nc(NCCN2CCN(C)CC2)nc(SCCCCCCC)n1 [S7S14 D5] | 10.7 |
| CCCCCCCCCCCCCNc1nc(NCCN(C)C)nc(SCCCCCCCCC)n1 [S9N13 D1] | 25.0 |
| CCCCCCCCCCCCCCCNc1nc(NCCCN2CCOCC2)nc(SCCCCCCCCCCCC)n1 [S12N15 D8] | 0.0 |
| CCCCCCCCCCCCCCCSc1nc(NCCN2CCCC2)nc(N(CCCCCCCCCCCC)CCCCCCCCCCCC)n1 [S15^2N12 D3] | 0.1 |
| CCCCCCCCNc1nc(NCCCN(C)C)nc(SCCCCCC)n1 [S6N8 D6] | 0.6 |
| CCCCCCCCCCCCCCCCNc1nc(NCCCN2CCOCC2)nc(SCCCCCCCCCCC)n1 [S11N16 D8] | 0.4 |
| CCCCCCCCCCCCCCCCCCNc1nc(NCCCN2CCOCC2)nc(SCCCCCCCCCC)n1 [S10N18 D8] | 0.3 |
| CCCCCCCCCCCCCCCSc1nc(NCCCN(C)C)nc(SCCCCCCC)n1 [S7S15 D6] | 7.6 |

| Structure (SMILES) | Absolute DNA transfection efficiency in HEK293 cells [%] |
| --- | --- |
| CCCCCCCCCCCCCCCSc1nc(NCCCCCCCCCCCCC)nc(NCCCN2CCN(C)CC2)n1 [S15N13 D9] | 3.2 |
| CCCCCCCCCCCCNc1nc(NCCN2CCN(C)CC2)nc(SCCCCCCC)n1 [S7N12 D5] | 35.1 |
| CCCCCCCCCCCCCCCCCCNc1nc(NCC2CCN(C)CC2)nc(SCCCCCCCCCCCCCCC)n1 [S15N18 D10] | 1.2 |
| CCCCCCCCCCCCNc1nc(NCCN2CCOCC2)nc(SCCCCCCCCCC)n1 [S10N12 D2] | 3.7 |
| CCCCCCCCCCCCNc1nc(NCCN(C)C)nc(SCCCCCCCCCC)n1 [S10N12 D1] | 1.8 |
| CCCCCCCCCCSc1nc(NCCCCCCCC)nc(NCCCN2CCN(C)CC2)n1 [S10N8 D9] | 5.6 |
| CCCCCCCCCCCSc1nc(NCCCN2CCN(C)CC2)nc(SCCCCCC)n1 [S6S11 D9] | 16.8 |
| CCCCCCCCCCCCSc1nc(NCCCCCCCC)nc(NCCCN(C)C)n1 [S12N8 D6] | 43.1 |
| CCCCCCCCCCCCCCCSc1nc(NCCCCCCC)nc(NCCN2CCOCC2)n1 [S15N7 D2] | 23.0 |
| CCCCCCCCCCCSc1nc(NCCN2CCOCC2)nc(SCCCCCCCC)n1 [S8S11 D2] | 17.9 |
| CCCCCCCCCCCCCCCSc1nc(NCCCCCCCCC)nc(NCCN2CCCC2)n1 [S15N9 D3] | 30.1 |
| CCCCCCCSc1nc(NCCN2CCCCC2)nc(SCCCCCCC)n1 [S7S7 D4] | 0.0 |
| CCCCCCCCCCCCCCCCCCSc1nc(NCCCCCCCC)nc(NCCCN2CCOCC2)n1 [S18N8 D8] | 2.0 |
| CCCCCCCCCCCCNc1nc(NCCN2CCCCC2)nc(SCCCCCCCC)n1 [S8N12 D4] | 7.6 |
| CCCCCCCCCCCNc1nc(NCCN(CC)CC)nc(SCCCCCCCCCC)n1 [S10N11 D7] | 5.0 |
| CCCCCCCCSc1nc(NCCCN2CCN(C)CC2)nc(SCCCCCC)n1 [S6S8 D9] | 10.0 |
| CCCCCCCCCCCCCCCCCCSc1nc(NCCCCCCCCCCC)nc(NCCN(C)C)n1 [S18N11 D1] | 3.7 |
| CCCCCCCCCSc1nc(NCCCCCC)nc(NCCCN(C)C)n1 [S9N6 D6] | 8.8 |
